pEC50, pKi: −log10 of the molar value. Read-outs that look alike come from different tables or passages of the source.
How the values were obtained:
5HT2A receptor [1] = biological target: T1, 5HT2A receptor (Homo sapiens, UniProt P28223); experiment: biochemical; assay type: binding; set-up: expressed in transfected cells; crude membranes; conditions: for Ki: 5HT2A Ki (nM); for pKi: read-out: 5HT2A Ki
5HT2A receptor [2] = biological target: T1, 5HT2A receptor; experiment: cell-based; set-up: expressed in transfected cells; host or cells: HEK293T cells, transient co-transfection; conditions: for Emax: HEK-293T
5HT2A receptor [3] = biological target: T1, 5HT2A receptor; experiment: cell-based; set-up: expressed in transfected cells; host or cells: HEK293T cells, transient co-transfection; conditions: for pEC50: read-out: 5HT2A β-Arr EC50; for Emax: HEK-293T; for EC50: 5HT2A β-Arr EC50 (nM)
[4] = secondary binding assay, Cheng-Prusoff
[5] = BRET2 Gαq dissociation, HEK293T, read-out: 5HTA Gq EC50
[6] = BRET2 Gαq dissociation, HEK293T, normalized to 5-HT, read-out: 5HTA Gq Emax (%)
[7] = BRET1 beta-arrestin2 recruitment, HEK293T
[8] = BRET1 beta-arrestin2 recruitment, HEK293T, normalized to 5-HT, read-out: 5HT2A β-Arr Emax (%)
[9] = secondary radioligand binding, Ki from IC50 by Cheng-Prusoff
[10] = BRET2 Gαq dissociation, HEK293T cells, read-out: 5HT2A Gq EC50
[11] = BRET2 Gαq dissociation, HEK293T cells, normalized to 5-HT, read-out: 5HT2A Gq Emax (%)
[12] = BRET1 beta-arrestin2 recruitment, HEK293T cells
[13] = BRET1 beta-arrestin2 recruitment, HEK293T cells, normalized to 5-HT, read-out: 5HT2A β-Arr Emax (%)
[14] = 5HTA Gq EC50 (nM), BRET2 Gαq dissociation, HEK293T
[15] = read-out: 5HTA Gq Emax (%), BRET2 Gαq dissociation, HEK293T, normalized to 5-HT
[16] = read-out: 5HT2A β-Arr Emax (%), BRET1 beta-arrestin2 recruitment, HEK293T, normalized to 5-HT
[17] = 5HT2A Gq EC50 (nM), BRET2 Gαq dissociation, HEK293T cells

T1 sequence (P28223 whole entry): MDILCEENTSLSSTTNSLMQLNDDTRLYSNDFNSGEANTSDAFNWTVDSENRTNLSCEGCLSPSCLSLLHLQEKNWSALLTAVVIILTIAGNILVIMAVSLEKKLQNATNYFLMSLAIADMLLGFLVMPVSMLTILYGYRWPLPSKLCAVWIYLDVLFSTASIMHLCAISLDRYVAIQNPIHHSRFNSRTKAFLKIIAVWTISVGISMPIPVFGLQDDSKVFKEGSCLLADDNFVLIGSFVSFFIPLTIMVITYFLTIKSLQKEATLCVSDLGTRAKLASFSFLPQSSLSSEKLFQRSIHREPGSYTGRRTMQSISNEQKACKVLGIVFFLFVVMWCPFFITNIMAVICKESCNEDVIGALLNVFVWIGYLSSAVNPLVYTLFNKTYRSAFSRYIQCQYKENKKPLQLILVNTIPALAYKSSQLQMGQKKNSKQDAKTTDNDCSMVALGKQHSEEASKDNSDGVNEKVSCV

Cc1c(F)ccc2c(C3=CCCN(C)C3)c[nH]c12 [Example 127, 6-fluoro-7-methyl-3-(1-methyl-1,2,5,6-tetrahydropyridin-3-yl)-1H-indole]
Ki (5HT2A receptor [1]; [4]): 121 nM
pEC50 (5HT2A receptor [2]; [5]): 7.58
Emax (5HT2A receptor [2]; [6]): 90.2%
pEC50 (5HT2A receptor [3]; [7]): 7.20
Emax (5HT2A receptor [3]; [8]): 48.9%

Cc1cccc2c(C3=CCCNC3)n[nH]c12 [Example 88, 7-methyl-3-(1,2,5,6-tetrahydropyridin-3-yl)-1H-indazole]
Ki (5HT2A receptor [1]; [9]): 211 nM
pEC50 (5HT2A receptor [2]; [10]): 7.28
Emax (5HT2A receptor [2]; [11]): 72.6%
EC50 (5HT2A receptor [3]; [12]): 227 nM
Emax (5HT2A receptor [3]; [13]): 64.8%

C=CCc1cccc2c(C3=CCCN(C)C3)c[nH]c12 [Example 257, 7-allyl-3-(1-methyl-1,2,5,6-tetrahydropyridin-3-yl)-1H-indole]
pKi (5HT2A receptor [1]; [4]): 7.01
pEC50 (5HT2A receptor [2]; [5]): 7.35
Emax (5HT2A receptor [2]; [6]): 90.7%
EC50 (5HT2A receptor [3]; [7]): 105 nM
Emax (5HT2A receptor [3]; [8]): 52.1%

Clc1cccc2c(C3CNC3)c[nH]c12 [Example 255, 3-(azetidin-3-yl)-7-chloro-1H-indole]
Ki (5HT2A receptor [1]; [4]): 159 nM
EC50 (5HT2A receptor [2]; [14]): 68.2 nM
Emax (5HT2A receptor [2]; [15]): 81.1%
EC50 (5HT2A receptor [3]; [7]): 302 nM
Emax (5HT2A receptor [3]; [16]): 42.3%

Clc1cccc2c(C34CNCC3C4)c[nH]c12 (single isomer, unassigned) [Example 277, 3-(3-azabicyclo[3.1.0]hexan-1-yl)-7-chloro-1H-indole]
pKi (5HT2A receptor [1]; [4]): 7.09
5HTA Gq Emax (%) (5HT2A receptor [2]; BRET2 Gαq dissociation, HEK293T, normalized to 5-HT): 86.5%
pEC50 (5HT2A receptor [2]; [5]): 7.08
EC50 (5HT2A receptor [3]; [7]): 212 nM
Emax (5HT2A receptor [3]; [8]): 25.4%

CC#CCN1CCC=C(c2n[nH]c3c(Cl)cccc23)C1 [Example 149, 3-(1-(but-2-yn-1-yl)-1,2,5,6-tetrahydropyridin-3-yl)-7-chloro-1H-indazole]
Ki (5HT2A receptor [1]; [4]): 364 nM
EC50 (5HT2A receptor [2]; [14]): 10.1 nM
Emax (5HT2A receptor [2]; [15]): 49.8%
EC50 (5HT2A receptor [3]; [7]): 113 nM
Emax (5HT2A receptor [3]; [16]): 24.2%

CCCc1cccc2c(C3=CCCN(CC)C3)c[nH]c12 [Example 245, 3-(1-ethyl-1,2,5,6-tetrahydropyridin-3-yl)-7-propyl-1H-indole]
Ki (5HT2A receptor [1]; [4]): 600 nM
EC50 (5HT2A receptor [2]; [14]): 392 nM
Emax (5HT2A receptor [2]; [15]): 87.5%
EC50 (5HT2A receptor [3]; [7]): 1300 nM
Emax (5HT2A receptor [3]; [16]): 44.8%

Fc1cc(Cl)c2[nH]nc(C34CNCC3C4)c2c1 (stereo not drawn) [Example 185, 3-(3-azabicyclo[3.1.0]hexan-1-yl)-7-chloro-5-fluoro-1H-indazole]
Ki (5HT2A receptor [1]; [4]): 6740 nM
EC50 (5HT2A receptor [2]; [14]): 290 nM
Emax (5HT2A receptor [2]; [6]): 78.1%
EC50 (5HT2A receptor [3]; [7]): 542 nM
Emax (5HT2A receptor [3]; [8]): 46.1%

Cc1cccc2[nH]cc(C3=CCCNC3)c12 [Example 17, 4-methyl-3-(1,2,5,6-tetrahydropyridin-3-yl)-1H-indole]
pKi (5HT2A receptor [1]; [9]): 7.94
pEC50 (5HT2A receptor [2]; [10]): 7.66
Emax (5HT2A receptor [2]; [11]): 85.7%
pEC50 (5HT2A receptor [3]; [12]): 6.83
Emax (5HT2A receptor [3]; [13]): 42%

COc1cccc2c(C3=CCCN(Cc4ccccc4)C3)c[nH]c12 [Example 71, 3-(1-benzyl-1,2,5,6-tetrahydropyridin-3-yl)-7-methoxy-1H-indole]
Ki (5HT2A receptor [1]; [9]): 448 nM
EC50 (5HT2A receptor [2]; [17]): 530 nM
Emax (5HT2A receptor [2]; [11]): 65.2%

CN1CCC=C(c2n[nH]c3cc(Cl)ccc23)C1 [Example 94, 6-chloro-3-(1-methyl-1,2,5,6-tetrahydropyridin-3-yl)-1H-indazole]
Ki (5HT2A receptor [1]; [9]): 1300 nM
EC50 (5HT2A receptor [2]; [17]): 309 nM
Emax (5HT2A receptor [2]; [11]): 72.1%

C1=C(c2c[nH]c3ncc(-c4ccccc4)cc23)CNCC1 [Example 4, 5-phenyl-3-(1,2,5,6-tetrahydropyridin-3-yl)-1H-pyrrolo[2,3-b]pyridine]
Ki (5HT2A receptor [1]; [9]): 613 nM
EC50 (5HT2A receptor [2]; [17]): 294 nM
Emax (5HT2A receptor [2]; [11]): 67%

Cc1cccc2c(C34CC3CN(C)C4)n[nH]c12 (stereo not drawn) [Example 227, 7-methyl-3-(3-methyl-3-azabicyclo[3.1.0]hexan-1-yl)-1H-indazole]
Ki (5HT2A receptor [1]; [4]): 1450 nM
EC50 (5HT2A receptor [2]; [14]): 684 nM
Emax (5HT2A receptor [2]; [6]): 32.5%

c1cnc2[nH]cc(C34CNCCC3C4)c2c1 (stereo not drawn) [Example 268, 3-(3-azabicyclo[4.1.0]heptan-1-yl)-1H-pyrrolo[2,3-b]pyridine]
Ki (5HT2A receptor [1]; [4]): 5940 nM
EC50 (5HT2A receptor [2]; [14]): 740 nM
Emax (5HT2A receptor [2]; [6]): 98%

Clc1cccc2c(C34CNCCC3C4)n[nH]c12 (stereo not drawn) [Example 181, 3-(3-azabicyclo[4.1.0]heptan-1-yl)-7-chloro-1H-indazole]
Ki (5HT2A receptor [1]; [4]): 842 nM
EC50 (5HT2A receptor [2]; [14]): 120 nM
Emax (5HT2A receptor [2]; [15]): 61.3%

CN1CCC2CC2(c2n[nH]c3c(Cl)cc(F)cc23)C1 (stereo not drawn) [Example 198, 7-chloro-5-fluoro-3-(3-methyl-3-azabicyclo[4.1.0]heptan-1-yl)-1H-indazole]
Ki (5HT2A receptor [1]; [4]): 1450 nM
EC50 (5HT2A receptor [2]; [14]): 1160 nM
Emax (5HT2A receptor [2]; [6]): 45.1%

Fc1cc(Cl)c2[nH]cc(C3CNCCO3)c2c1 (stereo not drawn) [Example 249, 2-(7-chloro-5-fluoro-1H-indol-3-yl)morpholine]
Ki (5HT2A receptor [1]; [4]): 1020 nM
EC50 (5HT2A receptor [2]; [14]): 118 nM
Emax (5HT2A receptor [2]; [6]): 72.2%

CCCN1CC=C(c2c[nH]c3c(Cl)cccc23)CC1 [Example 243, 7-chloro-3-(1-propyl-1,2,3,6-tetrahydropyridin-4-yl)-1H-indole]
Ki (5HT2A receptor [1]; [4]): 27.2 nM
EC50 (5HT2A receptor [2]; [14]): 104 nM
Emax (5HT2A receptor [2]; [15]): 41.9%

Cc1[nH]c2ccccc2c1C1=CCCNC1 [Example 61, 2-methyl-3-(1,2,5,6-tetrahydropyridin-3-yl)-1H-indole]
Ki (5HT2A receptor [1]; [9]): 805 nM
EC50 (5HT2A receptor [2]; [17]): 363 nM
Emax (5HT2A receptor [2]; [11]): 67.4%

Cn1cc(C2=CCCNC2)c2cccnc21 [Example 47, 1-methyl-3-(1,2,5,6-tetrahydropyridin-3-yl)-1H-pyrrolo[2,3-b]pyridine]
Ki (5HT2A receptor [1]; [9]): 796 nM
EC50 (5HT2A receptor [2]; [17]): 379 nM
Emax (5HT2A receptor [2]; [11]): 48.7%

Clc1cccc2c(C34CNCC3C4)n[nH]c12 (stereo not drawn) [Example 180, 3-(3-azabicyclo[3.1.0]hexan-1-yl)-7-chloro-1H-indazole]
Ki (5HT2A receptor [1]; [4]): 227 nM
EC50 (5HT2A receptor [2]; [14]): 174 nM
Emax (5HT2A receptor [2]; [15]): 109%

CN1CCC=C(c2c[nH]c3nccc(-c4ccccc4)c23)C1 [Example 16, 3-(1-methyl-1,2,5,6-tetrahydropyridin-3-yl)-4-phenyl-1H-pyrrolo[2,3-b]pyridine]
Ki (5HT2A receptor [1]; [9]): 164 nM
EC50 (5HT2A receptor [3]; [12]): 2140 nM
Emax (5HT2A receptor [3]; [13]): 49.6%

CCCN1CCC2CC2(c2n[nH]c3c(Cl)cccc23)C1 (stereo not drawn) [Example 182, 7-chloro-3-(3-propyl-3-azabicyclo[4.1.0]heptan-1-yl)-1H-indazole]
Ki (5HT2A receptor [1]; [4]): 2470 nM
EC50 (5HT2A receptor [2]; [14]): 786 nM
Emax (5HT2A receptor [2]; [6]): 78.9%

CN1CCC=C(c2c[nH]c3cnccc23)C1 [Example 135, 3-(1-methyl-1,2,5,6-tetrahydropyridin-3-yl)-1H-pyrrolo[2,3-c]pyridine]
Ki (5HT2A receptor [1]; [4]): 3540 nM
EC50 (5HT2A receptor [2]; [14]): 1610 nM
Emax (5HT2A receptor [2]; [6]): 77.8%

FC1(F)C2CCNCC21c1n[nH]c2c(Cl)cccc12 (stereo not drawn) [Example 188, 7-chloro-3-(7,7-difluoro-3-azabicyclo[4.1.0]heptan-1-yl)-1H-indazole]
Ki (5HT2A receptor [1]; [4]): 2100 nM
EC50 (5HT2A receptor [2]; [14]): 1460 nM
Emax (5HT2A receptor [2]; [15]): 83.7%

Clc1cccc2c(C3=CC4CCC3NC4)n[nH]c12 (stereo not drawn) [Example 223, 6-(7-chloro-1H-indazol-3-yl)-2-azabicyclo[2.2.2]oct-5-ene]
Ki (5HT2A receptor [1]; [4]): 1920 nM
EC50 (5HT2A receptor [2]; [14]): 717 nM
Emax (5HT2A receptor [2]; [15]): 89.7%

CN1CCC=C(c2c[nH]c3ccncc23)C1 [Example 136, 3-(1-methyl-1,2,5,6-tetrahydropyridin-3-yl)-1H-pyrrolo[3,2-c]pyridine]
Ki (5HT2A receptor [1]; [4]): 1810 nM
EC50 (5HT2A receptor [2]; [14]): 529 nM
Emax (5HT2A receptor [2]; [6]): 92.5%

Source: patent US20260265246A1 (ICAHN SCHOOL OF MEDICINE AT MOUNT SINAI, priority 2021, published 2026)
